According to patent publication US20230219251A1, “MULTIFUNCTIONAL WOOD PRESERVATIVE COMPOSITION AND WOOD PRESERVATION TREATMENT METHOD USING THE SAME” (KOREA INSTITUTE OF SCIENCE AND TECHNOLOGY, priority 2022, published 2023):

Key:
[1] = cited from earlier work
Coptotermes formosanus = conditions: cited from earlier work
Reticulitermes speratus = conditions: cited from earlier work
rot fungi = conditions: cited from earlier work
wood-boring insects = conditions: cited from earlier work
[2] = 30 wt % BAE; one day after completion of the reaction
Experimental: Hydrazine borates (#1 to #6) were synthesized by varying the amounts of boric acid (BA) and hydrazine hydrate (HH) while fixing the boric acid equivalent (BAE) level to 30 wt %.
(§1) Specifically, 150 g of BA was added, and HH was added at ratios shown in Table 1 after addition of water (distilled water), followed by reaction at a temperature of each reaction solution of 60° C. The termination time point of the reaction was when the solution became a transparent solution. The degree of precipitation was analyzed one day after the completion of the reaction.

[3] = pH of the prepared solutions; assay type: physicochemical
Experimental: as §1
Hydrazine borates (#7 to #11) with different BAE levels were synthesized by varying the amounts of BA and HH. Specifically, BA was added at proportions shown in Table 3 below, and water was added and HH was added, followed by reaction at a temperature of each reaction solution of 60° C. Then, the termination time point of the reaction was when the solution became a transparent solution. The degree of precipitation was analyzed one month after the completion of the reaction.

[4] = Test on dilution stability
Experimental: The precipitation or lack thereof over time was visually observed while the tube was shaken every 6 hours, and the results are shown in Table 14.

[5] = reaction solutions of Example 1, 30 wt % BAE
[6] = reaction solutions of Example 2, 40-71 wt % BAE

For `N.O=BOB1OB2OB(O)OB(O1)O2` [ammonium pentaborate (APB), ammonium pentaborate], which “BAE at room temperature” value [1] is on record?
Its value is 10.6 % BAE.

With `O.O.O.O.O=BOB1OB(OB=O)OB2OB([O-])OB([O-])OB(O1)O2.[Na+].[Na+]` [disodium octaborate tetrahydrate (DOT), disodium octaborate tetrahydrate] as the compound, how does the “BAE at room temperature” value [1] read?
Its value is 11.6 % BAE.

Which Toxicity titer (Coptotermes formosanus) does the source give for borate here?
The Toxicity titer was 3.0 kg/m^3 BAE.

And the Toxicity titer (Reticulitermes speratus)?
The Toxicity titer was < 3.0 kg/m^3 BAE.

What about the Toxicity titer (rot fungi) of the same compound?
The Toxicity titer was 1.0-1.5 kg/m^3 BAE.

What about the Toxicity titer (wood-boring insects) of the same compound?
Its Toxicity titer is 1.2 kg/m^3 BAE.

With “dilithium octaborate [dilithium octaborate (LOB)]” as the compound, how does the “BAE at room temperature” value [1] read?
The value was 24.1 % BAE.

With hydrazine borate [#1] as the compound, how does the “Appearance of the solution / precipitate formation” value [2] read?
Its value is “transparent solutions”.

What about the pH [3, 5] of the same compound?
The pH was 9.50.

With hydrazine borate [#2] as the compound, how does the “Appearance of the solution / precipitate formation” value [2] read?
The value was “transparent solutions”.

And the pH [3, 5]?
The pH was 8.42.

Which pH [3, 5] does the source give for hydrazine borate [#3] here?
The pH was 7.45.

Which pH [3, 5] does the source give for hydrazine borate [#4] here?
The pH was 6.13.

Which pH [3, 5] does the source give for hydrazine borate [#5] here?
The pH was 6.33.

For hydrazine borate [#6], which pH [3, 5] is on record?
The pH was 6.59.

With hydrazine borate [#7] as the compound, how does the pH [3, 6] read?
Its pH is 8.45.

Which pH [3, 6] does the source give for hydrazine borate [#8] here?
The pH was 8.42.

What about the Precipitation over time ([4]; diluted 1:1 in distilled water, 1 Days) of the same compound?
Its Precipitation over time is “N”.

What about the Precipitation over time ([4]; diluted 1:1 in distilled water, 3 Days) of the same compound?
The Precipitation over time was “N”.

And the Precipitation over time ([4]; diluted 1:1 in distilled water, 5 Days)?
Its Precipitation over time is “N”.

And the Precipitation over time ([4]; diluted 1:1 in distilled water, 7 Days)?
Its Precipitation over time is “N”.

What about the Precipitation over time ([4]; diluted 2:1 in distilled water, 1 Days) of the same compound?
The Precipitation over time was “N”.

What about the Precipitation over time ([4]; diluted 2:1 in distilled water, 3 Days) of the same compound?
Its Precipitation over time is “N”.

What about the Precipitation over time ([4]; diluted 2:1 in distilled water, 5 Days) of the same compound?
Its Precipitation over time is “N”.

And the Precipitation over time ([4]; diluted 2:1 in distilled water, 7 Days)?
Its Precipitation over time is “N”.

And the Precipitation over time ([4]; diluted 3:1 in distilled water, 1 Days)?
Its Precipitation over time is “N”.

And the Precipitation over time ([4]; diluted 3:1 in distilled water, 3 Days)?
The Precipitation over time was “N”.

What about the Precipitation over time ([4]; diluted 3:1 in distilled water, 5 Days) of the same compound?
Its Precipitation over time is “N”.

And the Precipitation over time ([4]; diluted 3:1 in distilled water, 7 Days)?
The Precipitation over time was “N”.

With hydrazine borate [#9] as the compound, how does the pH [3, 6] read?
The pH was 8.41.

For hydrazine borate [#10], which pH [3, 6] is on record?
Its pH is 8.40.

With hydrazine borate [#11] as the compound, how does the pH [3, 6] read?
Its pH is 8.37.
